Measurements from patent US9388175B2, “2-aniline-4-aryl substituted thiazole derivatives” (Janssen Pharmaceutica N.V., priority 2005, dated 2016).
Structures can show the parent of a compound that is named as a salt.

Tests used:
[1] = biological target: T1, hα7-wt nAChR stably expressed in the GH4C1 cell line (Homo sapiens, UniProt P36544); test: Ca2+ flux imaging (FLIPR) of PAM activity with choline as agonist; assay type: cell-based; details: efficacy relative to 100 μM choline alone (defined as 1); peak fluorescence, fluo-4AM; compounds tested 0.1 μM to 30 μM, efficacy criterion at 10 μM
T1 construct: expressed in transfected cells
T1 sequence (P36544 23-502): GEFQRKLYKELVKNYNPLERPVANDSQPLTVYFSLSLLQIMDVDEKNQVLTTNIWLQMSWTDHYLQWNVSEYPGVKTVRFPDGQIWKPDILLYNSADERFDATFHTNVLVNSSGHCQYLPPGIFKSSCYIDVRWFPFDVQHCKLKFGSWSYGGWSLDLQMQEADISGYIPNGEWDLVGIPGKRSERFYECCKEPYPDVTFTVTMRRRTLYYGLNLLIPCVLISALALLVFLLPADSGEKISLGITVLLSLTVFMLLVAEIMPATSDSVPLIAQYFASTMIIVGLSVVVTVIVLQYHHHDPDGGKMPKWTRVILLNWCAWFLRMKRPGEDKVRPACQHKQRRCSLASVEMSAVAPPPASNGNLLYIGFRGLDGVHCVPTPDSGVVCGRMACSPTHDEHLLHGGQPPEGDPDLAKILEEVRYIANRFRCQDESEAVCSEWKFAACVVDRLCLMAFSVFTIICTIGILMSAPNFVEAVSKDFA

NC(=O)Cc1sc(Nc2cccc(C(F)(F)F)c2)nc1-c1ccccc1 [Compound 1, 2-[4-Phenyl-2-(3-trifluoromethyl-phenylamino)-thiazol-5-yl]-acetamide]
Activity Range [1]: C (C denotes an activity range from 2.0 till 3.0) | melting point: 186 to 187 °C

CNC(=O)Cc1sc(Nc2cc(Cl)ccc2Cl)nc1-c1ccncc1 [Compound 163]
Activity Range [1]: E (E denotes an efficacy from at least 4.5) | melting point: 237.2 to 244 °C

Fc1ccc(Nc2nc(-c3cnc4ccccn34)cs2)cc1C(F)(F)F (as salt: HCl) [Compound 9]
melting point: 248 °C

CS(=O)(=O)NCc1sc(Nc2cccc(C(F)(F)F)c2)nc1-c1cccnc1 [Compound 109]
Activity Range [1]: E (E denotes an efficacy from at least 4.5) | melting point: 213.6 to 219.8 °C

CCOC(=O)Cc1sc(Nc2cc(Cl)ccc2Cl)nc1-c1ccncc1 [int. 30]
Activity Range [1]: E (E denotes an efficacy from at least 4.5) | melting point: 156.8 to 163.5 °C

Cc1cc(Nc2nc(-c3ccc(Cl)nc3)cs2)ccc1F [Compound 2]
Activity Range [1]: D (D denotes an activity range from 3.0 till 4.5) | melting point: 175 °C

COCc1sc(Nc2cc(Cl)ccc2Cl)nc1-c1ccncc1 [Compound 136]
Activity Range [1]: E (E denotes an efficacy from at least 4.5) | melting point: 205.3 to 205.8 °C

COc1ccc(Nc2nc(-c3ccncc3)c(CO)s2)cc1 [Compound 122, 2-[(4-methoxyphenyl)amino]-4-(4-pyridinyl)-5-thiazolemethanol]
Activity Range [1]: E (E denotes an efficacy from at least 4.5) | melting point: 126.2 to 126.8 °C

O=C(NCc1sc(Nc2cccc(C(F)(F)F)c2)nc1-c1cccnc1)c1ccccc1 [Compound 164]
Activity Range [1]: E (E denotes an efficacy from at least 4.5) | melting point: 215.5 to 218.9 °C

OCc1sc(Nc2cc(Cl)ccc2Cl)nc1-c1ccccc1 [int. 23]
Activity Range [1]: D (D denotes an activity range from 3.0 till 4.5) | melting point: 172.8 to 175 °C

NC(=O)Cc1sc(Nc2cc(Cl)ccc2Cl)nc1-c1ccncc1 [Compound 113, 2-[(2,5-dichlorophenyl)amino]-4-(4-pyridinyl)-5-thiazoleacetamide]
Activity Range [1]: E (E denotes an efficacy from at least 4.5) | melting point: 249.6 to 257.1 °C

Fc1ccc(Nc2nc(-c3cnc4sccn34)cs2)cc1C(F)(F)F [Compound 44]
Activity Range [1]: C (C denotes an activity range from 2.0 till 3.0)

Cc1cncc(-c2nc(Nc3cccc(Cl)c3Cl)sc2CO)c1 [Compound 128]
Activity Range [1]: E (E denotes an efficacy from at least 4.5)

Fc1cncc(-c2csc(Nc3ccc(F)c(C(F)(F)F)c3)n2)c1 [Compound 5]
Activity Range [1]: D (D denotes an activity range from 3.0 till 4.5)

COCc1sc(Nc2cc(Cl)ccc2Cl)nc1-c1ccccc1 [Compound 98]
Activity Range [1]: E (E denotes an efficacy from at least 4.5)
